pIC50: −log10 of the molar value.
Tests used:
CDK2/Cyclin E1 = CDK2/Cyclin E1 (Homo sapiens, UniProt P24941); assay: CDK2/Cyclin E1 Biochemical Assay (TR-FRET), 1 mM ATP; conditions: 0.15 μM Rb (Ser780)-biotin substrate, pH7.0, 60 min preincubation, 90 min reaction, room temperature
Experimental: (§1) CDK2/Cyclin E1 and CDK1/Cyclin B1 Biochemical Assays
(§2) Compounds disclosed herein were tested for inhibition of CDK2/Cyclin E1 or CDK1/Cyclin B1 kinase in an assay based on the time-resolved fluorescence-resonance energy transfer (TR-FRET) methodology. The assay was carried out in 384-well low volume black plates in a reaction mixture containing CDK2/Cyclin E1 or CDK1/Cyclin B1, 1 mM ATP for CDK2/Cyclin E1 and CDK1/Cyclin B1, 0.15 μM Rb (Ser780)-biotin substrate and 0-10 μM compound in buffer containing 50 mM HEPES pH7.0, 0.02% NaN3, 0.01% BSA, 0.1 mM Orthovanadate, 50 mM MgCl2, 1 mM DTT and 0.005% Tween-20. The kinase was incubated with compound for 60 minutes at room temperature and the reaction was initiated by the addition of ATP and Rb (Ser780)-biotin substrate. After reaction at room temperature for 90 minutes, an equal volume of stop/detection solution was added according to the manufacture's instruction (Cisbio Bioassays). The stop/detection solution contained Streptavidin-XL665 and Anti-pRb (Ser780) mAb-Eu Cryptate in Detection buffer (Cisbio Bioassays). Plates were incubated at room temperature for 60 minutes, and the TR-FRET signals (ex337 nm, em665 nm/620 nm) were recorded on a PHERAstar FSX plate reader (BMG Labtech). The inhibition percentage of CDK2/Cyclin E1 or CDK1/Cyclin B1 kinase activity in presence of increasing concentrations of compounds was calculated based on the ratio of fluorescence at 665 nm to that at 620 nm. The IC50 for each compound was derived from fitting the data to the four-parameter logistic equation by Dotmatics.

CDK1/Cyclin B1 = CDK1/Cyclin B1 (Homo sapiens, UniProt P06493); assay: CDK1/Cyclin B1 Biochemical Assay (TR-FRET), 1 mM ATP; conditions: 0.15 μM Rb (Ser780)-biotin substrate, pH7.0, 60 min preincubation, 90 min reaction, room temperature
Experimental: as §1, §2

Sequence of CDK1/Cyclin B1 (P06493 whole entry): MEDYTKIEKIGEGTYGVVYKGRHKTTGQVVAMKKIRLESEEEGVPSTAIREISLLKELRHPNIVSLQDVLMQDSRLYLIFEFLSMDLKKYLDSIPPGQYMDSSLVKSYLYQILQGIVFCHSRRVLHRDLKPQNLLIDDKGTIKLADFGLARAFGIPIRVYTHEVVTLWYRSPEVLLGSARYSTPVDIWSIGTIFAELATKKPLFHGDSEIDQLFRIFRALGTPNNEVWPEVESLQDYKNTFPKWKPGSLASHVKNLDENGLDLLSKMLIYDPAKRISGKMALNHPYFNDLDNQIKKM
Sequence of CDK1/Cyclin B1 (P14635 whole entry partner): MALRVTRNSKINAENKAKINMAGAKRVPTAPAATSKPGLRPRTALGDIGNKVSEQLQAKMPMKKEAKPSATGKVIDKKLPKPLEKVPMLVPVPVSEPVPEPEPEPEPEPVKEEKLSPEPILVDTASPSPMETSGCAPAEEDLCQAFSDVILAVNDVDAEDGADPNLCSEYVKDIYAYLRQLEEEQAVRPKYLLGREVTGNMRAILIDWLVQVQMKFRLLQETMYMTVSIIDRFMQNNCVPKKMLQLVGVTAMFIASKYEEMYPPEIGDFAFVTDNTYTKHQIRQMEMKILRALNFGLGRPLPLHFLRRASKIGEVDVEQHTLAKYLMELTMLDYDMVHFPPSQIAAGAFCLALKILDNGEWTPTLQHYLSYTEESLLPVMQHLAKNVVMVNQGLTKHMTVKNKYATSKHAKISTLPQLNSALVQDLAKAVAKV

Structure (SMILES) | pIC50 (CDK2/Cyclin E1) | pIC50 (CDK1/Cyclin B1)
CC(C)(CO)NC(=O)O[C@H]1CC[C@@H](c2cc(Nc3ccc4c(c3F)CS(=O)(=O)N4)n[nH]2)C1 (relative stereo) [Example 443, cis-3-(3-((4-fluoro-2,2-dioxido-1,3-dihydrobenzo[c]isothiazol-5-yl)amino)-1H-pyrazol-5-yl)cyclopentyl(1-hydroxy-2-methylpropan-2-yl)carbamate] | 8.80 | 6.24
CC(C)(C)NC(=O)O[C@H]1CC[C@@H](c2cc(Nc3ccc4c(c3F)CS(=O)(=O)N4)n[nH]2)C1 (relative stereo) [Example 423, cis-3-(3-((4-fluoro-2,2-dioxido-1,3-dihydrobenzo[c]isothiazol-5-yl)amino)-1H-pyrazol-5-yl)cyclopentyl tert-butylcarbamate] | 8.57 | 6.60
O=C(NC1CC1)O[C@H]1CC[C@@H](c2cc(Nc3ccc4c(c3F)CS(=O)(=O)N4)n[nH]2)C1 (relative stereo) [Example 459, cis-3-(3-((4-fluoro-2,2-dioxido-1,3-dihydrobenzo[c]isothiazol-5-yl)amino)-1H-pyrazol-5-yl)cyclopentyl cyclopropylcarbamate] | 8.22 | 5.70
CN(C(=O)O[C@H]1CC[C@@H](c2cc(Nc3ccc4c(c3F)CS(=O)(=O)N4)n[nH]2)C1)C1CCOC1 (relative stereo) [Example 441, cis-3-(3-((4-fluoro-2,2-dioxido-1,3-dihydrobenzo[c]isothiazol-5-yl)amino)-1H-pyrazol-5-yl)cyclopentyl methyl(tetrahydrofuran-3-yl)carbamate] | 7.33 | 5.30
CN1c2ccc(Nc3cc([C@@H]4CC[C@H](OC(=O)NCC(C)(C)O)C4)[nH]n3)c(F)c2CS1(=O)=O (single isomer, unassigned) [Example 330a, cis-3-(3-((4-fluoro-1-methyl-2,2-dioxido-1,3-dihydrobenzo[c]isothiazol-5-yl)amino)-1H-pyrazol-5-yl)cyclopentyl(2-hydroxy-2-methylpropyl)carbamate] | 7.08 | < 5.00
CC1(NC(=O)O[C@H]2CC[C@@H](c3cc(Nc4cc5c(cc4F)S(=O)(=O)NC5)n[nH]3)C2)CCC1 (relative stereo) [Example 445, cis-3-(3-((6-fluoro-1,1-dioxido-2,3-dihydrobenzo[d]isothiazol-5-yl)amino)-1H-pyrazol-5-yl)cyclopentyl(1-methylcyclobutyl)carbamate] | 8.74 | 5.98
CC1(NC(=O)O[C@H]2CC[C@@H](c3cc(Nc4cc5c(cc4F)S(=O)(=O)NC5)n[nH]3)C2)CCCC1 (relative stereo) [Example 446, cis-3-(3-((6-fluoro-1,1-dioxido-2,3-dihydrobenzo[d]isothiazol-5-yl)amino)-1H-pyrazol-5-yl)cyclopentyl(1-methylcyclopentyl)carbamate] | 8.77 | 5.85
CC1(NC(=O)O[C@@H]2CC[C@H](c3cc(Nc4ccc5c(c4F)CS(=O)(=O)N5)n[nH]3)C2)CCC1 (single isomer, unassigned) [Example 427a] | 8.96 | 6.84
CC(C)(CO)NC(=O)O[C@H]1CC[C@@H](c2cc(Nc3cc4c(cc3F)S(=O)(=O)NC4)n[nH]2)C1 (relative stereo) [Example 444, cis-3-(3-((6-fluoro-1,1-dioxido-2,3-dihydrobenzo[d]isothiazol-5-yl)amino)-1H-pyrazol-5-yl)cyclopentyl(1-hydroxy-2-methylpropan-2-yl)carbamate] | 7.80 | 5.10
CC(C)NC(=O)O[C@H]1CC[C@@H](c2cc(Nc3ccc4c(c3F)CCS(=O)(=O)N4)n[nH]2)C1 (single isomer, unassigned) [Example 430b] | 8.66 | 6.11
CC1(C)CCCN1C(=O)O[C@H]1CC[C@@H](c2cc(Nc3ccc4c(c3F)CS(=O)(=O)N4)n[nH]2)C1 (relative stereo) [Example 436, cis-3-(3-((4-fluoro-2,2-dioxido-1,3-dihydrobenzo[c]isothiazol-5-yl)amino)-1H-pyrazol-5-yl)cyclopentyl 2,2-dimethylpyrrolidine-1-carboxylate] | 8.82 | 6.91
CC[C@H](C)NC(=O)O[C@H]1CC[C@@H](c2cc(Nc3ccc4c(c3F)CS(=O)(=O)N4CC(C)(C)O)n[nH]2)C1 (relative stereo) [Example 434, cis-3-(3-((4-fluoro-1-(2-hydroxy-2-methylpropyl)-2,2-dioxido-1,3-dihydrobenzo[c]isothiazol-5-yl)amino)-1H-pyrazol-5-yl)cyclopentyl((S)-sec-butyl)carbamate] | 8.77 | 6.13

Further molecules by rising pIC50 (CDK2/Cyclin E1), results first:

pIC50 (CDK2/Cyclin E1) | pIC50 (CDK1/Cyclin B1) | Structure (SMILES)
5.71 | < 5.00 | CC(C)NC(=O)O[C@H]1CC[C@@H](c2cc(Nc3cc4c(cn3)S(=O)(=O)NC4)n[nH]2)C1 (relative stereo) [Example 425, cis-3-(3-((1,1-dioxido-2,3-dihydroisothiazolo[5,4-c]pyridin-5-yl)amino)-1H-pyrazol-5-yl)cyclopentyl isopropylcarbamate]
7.29 | 5.31 | CN1c2ccc(Nc3cc([C@@H]4CC[C@H](OC(=O)NCC5(O)CC5)C4)[nH]n3)cc2CS1(=O)=O (relative stereo) [Example 426, cis-3-(3-((1-methyl-2,2-dioxido-1,3-dihydrobenzo[c]isothiazol-5-yl)amino)-1H-pyrazol-5-yl)cyclopentyl((1-hydroxycyclopropyl)methyl)carbamate]
7.38 | < 5.00 | O=C(NC1CCOC1)O[C@H]1CC[C@@H](c2cc(Nc3ccc4c(c3F)CS(=O)(=O)N4)n[nH]2)C1 (relative stereo) [Example 431, cis-3-(3-((4-fluoro-2,2-dioxido-1,3-dihydrobenzo[c]isothiazol-5-yl)amino)-1H-pyrazol-5-yl)cyclopentyl(tetrahydrofuran-3-yl)carbamate]
7.74 | 5.31 | CC(C)NC(=O)O[C@H]1CC[C@@H](c2cc(Nc3ccc4c(c3F)NS(=O)(=O)N4)n[nH]2)C1 (relative stereo) [Example 465, cis-3-(3-((4-fluoro-2,2-dioxido-1,3-dihydrobenzo[c][1,2,5]thiadiazol-5-yl)amino)-1H-pyrazol-5-yl)cyclopentyl isopropylcarbamate]
8.32 | 5.89 | CC1(C)CCCN1C(=O)O[C@H]1CC[C@@H](c2cc(Nc3cc4c(cc3F)S(=O)(=O)NC4)n[nH]2)C1 (relative stereo) [Example 447, cis-3-(3-((6-fluoro-1,1-dioxido-2,3-dihydrobenzo[d]isothiazol-5-yl)amino)-1H-pyrazol-5-yl)cyclopentyl 2,2-dimethylpyrrolidine-1-carboxylate]
8.39 | 5.92 | CC1(C)CCN1C(=O)O[C@H]1CC[C@@H](c2cc(Nc3cc4c(cc3F)S(=O)(=O)NC4)n[nH]2)C1 (relative stereo) [Example 449, cis-3-(3-((6-fluoro-1,1-dioxido-2,3-dihydrobenzo[d]isothiazol-5-yl)amino)-1H-pyrazol-5-yl)cyclopentyl 2,2-dimethylazetidine-1-carboxylate]
8.96 | 7.19 | O=C(NC12CC(C1)C2)O[C@H]1CC[C@@H](c2cc(Nc3ccc4c(c3F)CS(=O)(=O)N4)n[nH]2)C1 (relative stereo) [Example 448, cis-3-(3-((4-fluoro-2,2-dioxido-1,3-dihydrobenzo[c]isothiazol-5-yl)amino)-1H-pyrazol-5-yl)cyclopentyl bicyclo[1.1.1]pentan-1-ylcarbamate]
9.10 | 6.49 | CC(C)(C)NC(=O)O[C@@H]1CC[C@H](c2cc(Nc3ccc4c(c3F)CCS(=O)(=O)N4)n[nH]2)C1 [Example 464, (1R,3S)-3-(3-((5-fluoro-2,2-dioxido-3,4-dihydro-1H-benzo[c][1,2]thiazin-6-yl)amino)-1H-pyrazol-5-yl)cyclopentyl tert-butylcarbamate]
9.10 | 7.17 | CC1(NC(=O)O[C@H]2CC[C@@H](c3cc(Nc4ccc5c(c4F)CS(=O)(=O)N5)n[nH]3)C2)CCC1 (single isomer, unassigned) [Example 427b]
9.30 | 6.31 | CN1c2ccc(Nc3cc([C@@H]4CC[C@H](OC(=O)NC56CC(C5)C6)C4)[nH]n3)c(F)c2CS1(=O)=O (relative stereo) [Example 452, cis-3-(3-((4-fluoro-1-methyl-2,2-dioxido-1,3-dihydrobenzo[c]isothiazol-5-yl)amino)-1H-pyrazol-5-yl)cyclopentyl bicyclo[1.1.1]pentan-1-ylcarbamate]
9.30 | 6.94 | [2H]C([2H])([2H])N1c2ccc(Nc3cc([C@@H]4CC[C@H](OC(=O)NC(C)(C)C)C4)[nH]n3)cc2CS1(=O)=O (relative stereo) [Example 454, cis-3-(3-((1-(methyl-d3)-2,2-dioxido-1,3-dihydrobenzo[c]isothiazol-5-yl)amino)-1H-pyrazol-5-yl)cyclopentyl tert-butylcarbamate]
